Series [1] concerns synovial cells derived from rheumatism patients. To be noted: cited from earlier work.
Series [2] relates to GCTB cultured cells (case 1, case 2; GCT-1, GCT-2). Kind of series: Suppression of cell proliferation of GCTB cultured cells (Cell Counting Kit-8, WST assay). To be noted: drug at various concentrations, CCK-8 24 hours after addition. In kind it is cell-based, human. The method, then: Tissue Int., 75:71-77), repeatedly subcultured until there were only spindle-shaped cells, which state was gradually attained from the state that there were also multinucleated giant cells observed in an early stage, and then used for the following analysis. […] Zaltoprofen was added as a solution in DMSO (dimethyl sulfoxide) prepared at a concentration 1000 times higher than the final concentration, and the solution was added in a volume of 0.1% of the volume of the medium. The same shall apply to the other drugs used in the following examples. […]
In general terms: Formazan colour is commonly taken as a measure of viable cells.

In series [3] the test system is H-EMC-SS cells. Kind of series: Suppression of cell proliferation of chondrosarcoma cell line H-EMC-SS (CCK-8). In kind it is cell-based, human. To be noted: drug at various concentrations. The source says:
The H-EMC-SS cells were obtained from the Riken BioResource Center.
(§1) The H-EMC-SS cells were obtained from the Riken BioResource Center. As the SW1353 cells, those obtained from ATCC were used.

The subject of series [4] is cultured cells of giant cell tumor of tendon sheath (GCTT). Kind of series: Suppression of cell proliferation of GCTT cultured cells (CCK-8). To be noted: drug at various concentrations, CCK-8 24 hours after addition. The series is classed as cell-based, human.
Series [5] concerns cultured cells of pigmented villonodular synovitis (PVNS). Kind of series: Suppression of cell proliferation of PVNS cultured cells (CCK-8). The series is classed as cell-based, human. To be noted: for suppression of cell proliferation (absorbance at 450 nm): PVNS cells, drug at various concentrations, CCK-8 24 hours after addition.
The test system of series [6] is SW1353 cells. Kind of series: Suppression of cell proliferation of chondrosarcoma cell line SW1353 (CCK-8). In kind it is cell-based, human. To be noted: drug at various concentrations.
From the text: as §1

The test system of series [7] is SW1353 cells. Kind of series: Cell migration of human chondrosarcoma cell line SW1353. The series is classed as cell-based. To be noted: 72 hours. Here is the method:
The analysis of cell migration was performed by using a 6-well plate of TPP according to the method described in Takeuchi A, et al., Cancer Science, 104:740-749, 2013 (Low molecular weight heparin suppresses receptor for advanced glycation end products-mediated expression of malignant phenotype in human fibrosarcoma cells). Cells of the human chondrosarcoma cell line, SW1353, were cultured in the same manner as that of Example 1 until they became sub-confluent, and the cells were delaminated in a width of 1 mm using a micropipette tip (200 μl). […] Then, area of the cells migrated to the region where the cells were delaminated was measured by using Image J software (http://rsb.info.nih.gov/ij/index.html) (FIGS. 73 and 74).

Series [8] has as its system SW1353 cells. Kind of series: Cell invasion of SW1353 cells (Matrigel Invasion Chamber). In kind it is cell-based, human. To be noted: all set concentrations, concentration-dependent; 24 hours. The source says:
For the analysis of cell invasion, Matrigel™ Invasion Chamber (BD Bioscience, catalog number 354480), which uses Matrigel as the matrix, was used. […] FIGS. 76 and 77 show microphotographs of invaded cells fixed by immersion into a 4% paraformaldehyde solution, and stained with hematoxylin (magnification is 200 times). From the microphotographs of FIGS. 76 and 77, the patterns of the invaded cells can be understood.

Series [9] in a line: Solubility in DMSO. The series is classed as physicochemical. To be noted: limited highest test concentration (lornoxicam 80 μm, ampiroxicam 20 μm).
Series [10] relates to colon cancer. To be noted: cited from earlier work.
The test system of series [11] is PVNS. To be noted: in vitro; cited from earlier work.
For series [12], the system named is SW1353 cells. Kind of series: Proliferation of SW1353 cells cultured beforehand with PPARγ siRNA or control siRNA. To be noted: 100 μM rosiglitazone; 24 hours. The series is classed as cell-based, human.
The mark [13] stands for this setting: all set concentrations, concentration-dependent.

Structures are written as SMILES. “Also recorded” adds a separate entry of the source.

With `CS(=O)(=O)Nc1ccc([N+](=O)[O-])cc1OC1CCCCC1` [NS-398], in series [1], the “activation of PPARγ” value is “did not activate PPARγ”, the apoptosis result is given as “did not cause apoptosis” and the “suppression of proliferation of the cells” value (from here on “suppression … of the cells”) is given as “suppressed proliferation”.
`COc1ccc2c(c1)c(CC(=O)OCC(=O)O)c(C)n2C(=O)c1ccc(Cl)cc1` [acemetacine, acemetacin]: in [2], the “suppression of cell proliferation (live cell count, absorbance at 450 nm)” value is “suppressed proliferation”. Further, the “suppression of cell proliferation (absorbance at 450 nm)” value (“suppression … (absorbance at 450 nm)” for short) in [3], in series [4], in series [5] and in [6] was “suppressed proliferation” each time.
For `CC(=O)Nc1ccc(O)cc1` [acetaminophen], in [2], the “suppression of cell proliferation (live cell count, absorbance at 450 nm)” value was “suppressed in a drug concentration-dependent manner; also recorded: suppressed proliferation”. The “suppression … (absorbance at 450 nm)” value in series [3], in [4], in series [5] and in series [6] was “suppressed proliferation” throughout. Also, the “suppression of cell migration of SW1353 cells” value in [7] (setting [13]) is given as “suppressed the cell migration”. In addition, the “suppression of cell invasion of SW1353 cells” value in series [8] is “suppressed the cell invasion”. Also, the “activation of PPARγ” value in series [1] is “did not cause activation of PPARγ”. Further, the apoptosis result in series [1] is listed as “did not cause”. Further, the “suppression … of the cells” value in series [1] is recorded as “did not cause”.
With `CCOC(=O)OC(C)OC1=C(C(=O)Nc2ccccn2)N(C)S(=O)(=O)c2ccccc21` (stereo not drawn) [ampiroxicam], the “suppression of cell proliferation (live cell count, absorbance at 450 nm)” value in series [2] is on record as “suppressed proliferation”. Moreover, the “suppression … (absorbance at 450 nm)” value in series [3], in [4], in series [5] and in series [6] was “suppressed proliferation” in each case. In series [9], the “solubility in DMSO (dimethyl sulfoxide)” value is given as “low solubility”.
With `Cc1ccc(-c2cc(C(F)(F)F)nn2-c2ccc(S(N)(=O)=O)cc2)cc1` [celecoxib], the “suppression of cell migration of SW1353 cells” value in series [7] (75 μM celecoxib) is on record as “higher than 80%”.
On to `O=C(O)Cc1ccccc1Nc1c(Cl)cccc1Cl` [diclofenac], for which, in series [2], the “suppression of cell proliferation (live cell count, absorbance at 450 nm)” value is listed as “suppressed in a drug concentration-dependent manner; also recorded: suppressed proliferation”. Moreover, the “occurrence of colon cancer” value in [10] (induced by repetitive administration of 1,2-dimethylhydrazine dihydrochloride to rats) was “prevented occurrence of colon cancer”. Further, in [10] (rats), the “amount of NF-κB protein in the large intestine” value is “reduced amount of NF-κB protein” and the “amount of the PPARγ protein” value was “increased amount of the PPARγ protein”. Further, the “suppression … (absorbance at 450 nm)” value in [3] was “suppressed proliferation”. Also, the “suppression of cell migration of SW1353 cells” value in series [7] (setting [13]) is given as “suppressed the cell migration”. In addition, in series [8], the “suppression of cell invasion of SW1353 cells” value is given as “suppressed the cell invasion”. Also, the “suppression … (absorbance at 450 nm)” value in series [4] is given as “suppressed proliferation”. Further, in series [1], the “activation of PPARγ” value is recorded as “activated PPARγ”, the apoptosis result is “caused apoptosis” and the “suppression … of the cells” value is given as “suppress proliferation”. In addition, the “suppression … (absorbance at 450 nm)” value in [5] was “suppressed proliferation”. Also, in series [6], the “suppression … (absorbance at 450 nm)” value is “suppressed proliferation”.
For the molecule `CCc1cccc2c3c([nH]c12)C(CC)(CC(=O)O)OCC3` (stereo not drawn) [etodolac], in [2], the “suppression of cell proliferation (live cell count, absorbance at 450 nm)” value is reported as “suppressed proliferation”. For the same molecule, the “suppression … (absorbance at 450 nm)” value in series [3], in series [4], in [5] and in series [6] was “suppressed proliferation” in each case.
For `COc1ccc2c(c1)c(CC(=O)O)c(C)n2C(=O)c1ccc(Cl)cc1` [indomethacin], the “suppression of cell proliferation (live cell count, absorbance at 450 nm)” value in [2] is recorded as “suppressed in a drug concentration-dependent manner; also recorded: suppressed proliferation”. The “suppression … (absorbance at 450 nm)” value in series [3], in [4], in [5] and in series [6] was “suppressed proliferation” in each case. In addition, the “suppression of cell migration of SW1353 cells” value in series [7] (setting [13]) was “suppressed the cell migration”. Moreover, the “suppression of cell invasion of SW1353 cells” value in series [8] was “suppressed the cell invasion”. Further, the “activation of PPARγ” value in series [1] was “activated PPARγ”. The apoptosis result in [1] was “caused apoptosis”. The “suppression … of the cells” value in series [1] is recorded as “suppress proliferation”.
Take `CN1C(C(=O)Nc2ccccn2)=C(O)c2sc(Cl)cc2S1(=O)=O` [lornoxicam]: the “suppression of cell proliferation (live cell count, absorbance at 450 nm)” value in series [2] is given as “suppressed proliferation”. Also, the “suppression … (absorbance at 450 nm)” value in [3], in [4], in series [5] and in series [6] was “suppressed proliferation” each time. Besides, the “solubility in DMSO (dimethyl sulfoxide)” value in [9] is “low solubility”.
Take `NC(=O)c1ncn([C@@H]2O[C@H](CO)[C@@H](O)[C@H]2O)c1O` [mizoribine]: the “inhibition of proliferation of PVNS” value in [11] is given as “slightly inhibited proliferation”.
Consider `COc1ccc(-c2noc(CC(=O)O)c2-c2ccc(OC)cc2)cc1` [mofezolac], for which the “suppression of cell proliferation (live cell count, absorbance at 450 nm)” value in [2] is “suppressed proliferation”. Moreover, the “suppression … (absorbance at 450 nm)” value in [3], in series [4], in [5] and in series [6] was “suppressed proliferation” throughout.
On to `COc1ccc2cc([C@H](C)C(=O)O)ccc2c1` [naproxen], for which the “suppression of cell proliferation (live cell count, absorbance at 450 nm)” value in series [2] is recorded as “suppressed proliferation”. Besides, the “suppression … (absorbance at 450 nm)” value in [3], in [4], in [5] and in series [6] was “suppressed proliferation” in each case.
As to `O=C(O)CCc1nc(-c2ccccc2)c(-c2ccccc2)o1` [oxaprozin], the “suppression of cell proliferation (live cell count, absorbance at 450 nm)” value in [2] is “suppressed proliferation”. Moreover, the “suppression … (absorbance at 450 nm)” value in series [3], in [4], in series [5] and in series [6] was “suppressed proliferation” throughout. In addition, the “activation of PPARγ” value in [1] was “activated PPARγ”. The apoptosis entry in [1] is given as “caused apoptosis”. Also, the “suppression … of the cells” value in series [1] was “suppress proliferation”. In series [5] (oxaprozin 200 μm, cells of pigmented villonodular synovitis as printed, 400 μm or higher could not be measured), the “suppression of the proliferation at the highest measured concentration” value was “only slight suppression”.
Consider `CN(CCOc1ccc(CC2SC(=O)NC2=O)cc1)c1ccccn1` (stereo not drawn) [rosiglitazone], for which the “suppression of proliferation of SW1353 cells” value in series [12] was “about 61%”.
As to `Cc1c(C)c2c(c(C)c1O)CCC(C)(COc1ccc(CC3SC(=O)NC3=O)cc1)O2` (stereo not drawn) [troglitazone], in [7] (100 μM troglitazone), the “suppression of cell migration of SW1353 cells” value was “about 65%”.

Source of the values: patent US10653667B2, “Drug for preventing, treating or preventing metastasis of giant cell tumor that occurs in bone or soft parts, chondrosarcoma, or osteosarcoma, local injection for arterial embolization, and artificial bone” (NIPPON CHEMIPHAR CO., LTD, priority 2013, dated 2020).
